Eight compounds from patent US20240252488A1 (KOREA RESEARCH INSTITUTE OF CHEMICAL TECHNOLOGY, priority 2020, published 2024) can be followed below.

One test concerns FADD−/− Jurkat cells. The test can be described thus: Necroptosis inhibition assay, TNF-α-induced necroptosis (CellTiter-Glo 2.0). The note with it: TNF-α 15 ng/mL; for Necroptosis inhibition assay (Rescue %) 1 μM: compound 1 μM; for Necroptosis inhibition assay (Rescue %) 10 μM: compound 10 μM. The test is classed as cell-based, human. The procedure, abridged:
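Luminescent ATP measurement gave viability, from which cytotoxicity and necroptosis inhibition rate were derived. Before that, cells (5.0×10^5 cells/mL) saw compound at 0.1, 1 or 10 μM final for 30 minutes at room temperature, then TNF-α (15 ng/mL final) for 20 to 24 hours at 37° C.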

In test [1] the target is T1, MLKL (Homo sapiens, UniProt Q8NB16).
T1 sequence (Q8NB16 1-471): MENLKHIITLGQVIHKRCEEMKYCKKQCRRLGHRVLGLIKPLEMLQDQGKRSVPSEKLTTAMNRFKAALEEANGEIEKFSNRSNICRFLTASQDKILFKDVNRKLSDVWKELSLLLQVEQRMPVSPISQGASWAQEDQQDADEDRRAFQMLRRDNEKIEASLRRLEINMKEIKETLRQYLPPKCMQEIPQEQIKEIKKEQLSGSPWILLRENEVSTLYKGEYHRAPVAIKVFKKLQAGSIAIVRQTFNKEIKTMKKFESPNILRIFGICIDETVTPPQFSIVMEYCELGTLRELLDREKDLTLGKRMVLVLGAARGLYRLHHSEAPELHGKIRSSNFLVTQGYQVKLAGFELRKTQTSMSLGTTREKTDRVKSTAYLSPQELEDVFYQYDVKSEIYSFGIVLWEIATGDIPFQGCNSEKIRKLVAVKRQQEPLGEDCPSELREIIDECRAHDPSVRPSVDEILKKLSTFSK
The test can be described thus: MLKL degradation assay in HepG2 cell line (western blot). The test is classed as cell-based. Also noted: endogenous in cells; host or cells: HepG2 or HaCaT. Conditions: cell line not given; for Degradation assay (Degradation %) 1 μM: compound 1 μM; for Degradation assay (Degradation %) 10 μM: compound 10 μM. Summed up: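 Cells seeded, next day medium swapped for compound-containing medium (final 1 or 10 μM) and incubated 20-24 h at 37 °C. Lysates in RIPA with protease/phosphatase inhibitors were protein-matched by BCA, run on SDS-PAGE and immunoblotted for MLKL.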

The target in test [2] is T1, MLKL. Briefly: Measurement of binding affinity with MLKL receptor (competitive binding assay, Kd). Also noted: made in house; host or cells: HEK 293 cell line (T7 phage in E. coli BL21-derived host is also described). The procedure, abridged: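 HEK 293-expressed, DNA-tagged MLKL; ligand beads blocked with biotin and SeaBlock/1% BSA/0.05% Tween 20/1 mM DTT buffer. Cpd from 111× DMSO stock, 0.9% DMSO final. Eluted kinase by qPCR → Kd.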

For the compound `Nc1ncc(-c2cnn(C3CCN(C(=O)CC4CCN(C(=O)C5CCN(c6cccc7nnn(C8CCC(=O)NC8=O)c(=O)c67)CC5)CC4)CC3)c2)nc1C(=O)O[C@@H](C(=O)Nc1ccc(F)cc1)c1ccccc1` (stereo partly drawn) [TDH-412, (R)-2-((4-fluorophenyl)amino)-2-oxo-1-phenylethyl 3-amino-6-(1-(1-(2-(1-(1-(3-(2,6-dioxopiperidin-3-yl)-4-oxo-3,4-dihydrobenzo[d][1,2,3]triazin-5-yl)piperidine-4-carbonyl)piperidin-4-yl)acetyl)piperidin-4-yl)-1H-pyrazol-4-yl)pyrazine-2-carboxylate], in the test with FADD−/− Jurkat cells (FADD−/− Jurkat cells), the “Necroptosis inhibition assay (Rescue %) 1 μM” value is recorded as 24.36% and the “Necroptosis inhibition assay (Rescue %) 10 μM” value was found to be 29.48%. Moreover, at MLKL [1], the “Degradation assay (Degradation %) 1 μM” value is recorded as 72.66% and the “Degradation assay (Degradation %) 10 μM” value amounted to 72.89%. On MLKL [2], the Kd was 2.5 nM.

For `Nc1ncc(-c2cnn(C3CCN(CC4CCN(CC5CCN(C(=O)C6CN(C7=CC(=O)N(C8CCC(=O)NC8=O)C7=O)C6)CC5)CC4)CC3)c2)nc1C(=O)O[C@@H](C(=O)Nc1ccc(F)cc1)c1ccccc1` (stereo partly drawn) [TDH-533, (R)-2-((4-fluorophenyl)amino)-2-oxo-1-phenylethyl 3-amino-6-(1-(1-((1-((1-(1-(1-(2,6-dioxopiperidin-3-yl)-2,5-dioxo-2,5-dihydro-1H-pyrrol-3-yl)azetidine-3-carbonyl)piperidin-4-yl)methyl)piperidin-4-yl)methyl)piperidin-4-yl)-1H-pyrazol-4-yl)pyrazine-2-carboxylate], in the test with FADD−/− Jurkat cells (FADD−/− Jurkat cells), the “Necroptosis inhibition assay (Rescue %) 1 μM” value is given as 11.86% and the “Necroptosis inhibition assay (Rescue %) 10 μM” value amounted to 22.99%. Also, at MLKL [1], the “Degradation assay (Degradation %) 1 μM” value is recorded as 33.35% and the “Degradation assay (Degradation %) 10 μM” value came out at 29.05%. The Kd on MLKL [2] turned out to be 0.47 nM.

As to `COc1ccc(C(=O)N2CCC(C(=O)N3CCC(CN4CCC(CCN5CCC(n6cc(-c7cnc(N)c(C(=O)O[C@@H](C(=O)Nc8ccc(F)cc8)c8ccccc8)n7)cn6)CC5)CC4)CC3)CC2)cc1N1CCC(=O)NC1=O` [TDH-511, (R)-2-((4-fluorophenyl)amino)-2-oxo-1-phenylethyl 3-amino-6-(1-(1-(2-(1-((1-(1-(3-(2,4-dioxotetrahydropyrimidin-1(2H)-yl)-4-methoxybenzoyl)piperidine-4-carbonyl)piperidin-4-yl)methyl)piperidin-4-yl)ethyl)piperidin-4-yl)-1H-pyrazol-4-yl)pyrazine-2-carboxylate], in the test on FADD−/− Jurkat cells (FADD−/− Jurkat cells), the “Necroptosis inhibition assay (Rescue %) 1 μM” value stood at 32.32% and the “Necroptosis inhibition assay (Rescue %) 10 μM” value is 46.16%. Also, at MLKL [1], the “Degradation assay (Degradation %) 1 μM” value came to 81.08% and the “Degradation assay (Degradation %) 10 μM” value is 91.73%. Also, the dissociation constant (Kd) on MLKL [2] was determined as 0.24 nM.

With `Nc1ncc(-c2cnn(C3CCN(CCCN4CC5CC4CN5C(=O)CNc4ccc5c(c4)C(=O)N(C4CCC(=O)NC4=O)C5=O)CC3)c2)nc1C(=O)O[C@@H](C(=O)Nc1ccc(F)cc1)c1ccccc1` (stereo partly drawn) [TDH-454, (R)-2-((4-fluorophenyl)amino)-2-oxo-1-phenylethyl 3-amino-6-(1-(1-(3-(5-((2-(2,6-dioxopiperidin-3-yl)-1,3-dioxoisoindolin-5-yl)glycyl)-2,5-diazabicyclo[2.2.1]heptan-2-yl)propyl)piperidin-4-yl)-1H-pyrazol-4-yl)pyrazine-2-carboxylate], in the test on FADD−/− Jurkat cells (FADD−/− Jurkat cells), the “Necroptosis inhibition assay (Rescue %) 1 μM” value is recorded as 65.44% and the “Necroptosis inhibition assay (Rescue %) 10 μM” value was found to be 39.99%. On MLKL [1], the “Degradation assay (Degradation %) 1 μM” value was determined as 87.16% and the “Degradation assay (Degradation %) 10 μM” value is given as 90.47%. The compound also registered a Kd on MLKL [2] of 2 nM.

In the case of `Nc1ncc(-c2cnn(C3CCN(C4CC5(CCN(CC6CCN(C(=O)C7CCN(C8=CC(=O)N(C9CCC(=O)NC9=O)C8=O)CC7)CC6)CC5)C4)CC3)c2)nc1C(=O)O[C@@H](C(=O)Nc1ccc(F)cc1)c1ccccc1` (stereo partly drawn) [TDH-528, (R)-2-((4-fluorophenyl)amino)-2-oxo-1-phenylethyl 3-amino-6-(1-(1-(7-((1-(1-(1-(2,6-dioxopiperidin-3-yl)-2,5-dioxo-2,5-dihydro-1H-pyrrol-3-yl)piperidine-4-carbonyl)piperidin-4-yl)methyl)-7-azaspiro[3.5]nonan-2-yl)piperidin-4-yl)-1H-pyrazol-4-yl)pyrazine-2-carboxylate], in the test on FADD−/− Jurkat cells (FADD−/− Jurkat cells), the “Necroptosis inhibition assay (Rescue %) 1 μM” value was found to be 40.69% and the “Necroptosis inhibition assay (Rescue %) 10 μM” value was 0.38%. Also, at MLKL [1], the “Degradation assay (Degradation %) 1 μM” value came to 63.93% and the “Degradation assay (Degradation %) 10 μM” value is recorded as 56.11%. At MLKL [2], this compound had a Kd of 0.18 nM.

For `Nc1ncc(-c2cnn(C3CCN(CC4CCN(CC5CCN(C(=O)C6CCN(C7=CC(=O)N(C8CCC(=O)NC8=O)C7=O)CC6)CC5)CC4)CC3)c2)nc1C(=O)O[C@@H](C(=O)Nc1ccc(F)cc1)c1ccccc1` (stereo partly drawn) [TDH-527, (R)-2-((4-fluorophenyl)amino)-2-oxo-1-phenylethyl 3-amino-6-(1-(1-((1-((1-(1-(1-(2,6-dioxopiperidin-3-yl)-2,5-dioxo-2,5-dihydro-1H-pyrrol-3-yl)piperidine-4-carbonyl)piperidin-4-yl)methyl)piperidin-4-yl)methyl)piperidin-4-yl)-1H-pyrazol-4-yl)pyrazine-2-carboxylate], in the test with FADD−/− Jurkat cells (FADD−/− Jurkat cells), the “Necroptosis inhibition assay (Rescue %) 1 μM” value is given as 42.79% and the “Necroptosis inhibition assay (Rescue %) 10 μM” value is listed as −12.98%. At MLKL [1], the “Degradation assay (Degradation %) 1 μM” value is reported as 71.10% and the “Degradation assay (Degradation %) 10 μM” value is 42.46%. For the same compound, binding at MLKL [2] was put at a Kd of 1.2 nM.

For `Nc1ncc(-c2cnn(C3CCN(CCOCCOCCNC(=O)C4CCN(c5ccc6c(c5)C(=O)N(C5CCC(=O)NC5=O)C6=O)CC4)CC3)c2)nc1C(=O)O[C@@H](C(=O)Nc1ccc(F)cc1)c1ccccc1` (stereo partly drawn) [TDH-111, (R)-2-((4-fluorophenyl)amino)-2-oxo-1-phenylethyl 3-amino-6-(1-(1-(2-(2-(2-(1-(2-(2,6-dioxopiperidin-3-yl)-1,3-dioxoisoindolin-5-yl)piperidine-4-carboxamido)ethoxy)ethoxy)ethyl)piperidin-4-yl)-1H-pyrazol-4-yl)pyrazine-2-carboxylate], in the test on FADD−/− Jurkat cells, the “Necroptosis inhibition assay (Rescue %) 1 μM” value is recorded as 45.17% and the “Necroptosis inhibition assay (Rescue %) 10 μM” value was found to be 78.08%. For the same compound, at MLKL [1], the “Degradation assay (Degradation %) 1 μM” value is 4.54% and the “Degradation assay (Degradation %) 10 μM” value is 28.85%. Binding on MLKL [2] was characterised by a dissociation constant (Kd) of 5.3 nM.

On to `Nc1ncc(-c2cnn(C3CCN(C4CC5(CCN(CC6CCN(C(=O)CNc7ccc8c(c7)C(=O)N(C7CCC(=O)NC7=O)C8=O)CC6)CC5)C4)CC3)c2)nc1C(=O)O[C@@H](C(=O)Nc1ccc(F)cc1)c1ccccc1` (stereo partly drawn) [TDH-443, (R)-2-((4-fluorophenyl)amino)-2-oxo-1-phenylethyl 3-amino-6-(1-(1-(7-((1-((2-(2,6-dioxopiperidin-3-yl)-1,3-dioxoisoindolin-5-yl)glycyl)piperidin-4-yl)methyl)-7-azaspiro[3.5]nonan-2-yl)piperidin-4-yl)-1H-pyrazol-4-yl)pyrazine-2-carboxylate], for which, in the test with FADD−/− Jurkat cells (FADD−/− Jurkat cells), the “Necroptosis inhibition assay (Rescue %) 1 μM” value came to 59.05% and the “Necroptosis inhibition assay (Rescue %) 10 μM” value was −65.46%. On MLKL [1], the “Degradation assay (Degradation %) 1 μM” value stood at 84.23% and the “Degradation assay (Degradation %) 10 μM” value is listed as 86.93%. This compound yielded a Kd at MLKL [2] of 0.52 nM.

The Kd is a measure of binding affinity in units of concentration. Higher therefore signals weaker binding.
